Assay results: the supplement of paper PMC10883282

What was measured:
[1] = tested on: A204; test: relative viability vs DMSO control (72 h) (fraction); higher = more viable cells
Outline: (§1)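 After seeding at densities set for 80–90% confluence in 384-well plates, sarcoma cell lines waited 24 h before 2.5 µl of serially diluted compound was added. Source plates held 10 mM down to 0.0002 mM. Plates were incubated 72 h at 37 °C with 5% CO2, with 0.1% DMSO vehicle and a 5 µM positive control, and relative viability was taken from ATPLite as percent growth averaged over up to triplicate wells, with 1 set as full and 0 as none.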

[2] = tested on: HS729; test: as above
Outline: as §1

[3] = tested on: KHOS-240S; test: as above
Outline: as §1

[4] = tested on: SW982; test: as above
Outline: as §1

[5] = tested on: SYO-1; test: as above
Outline: as §1

[6] = tested on: A204; test: standardised AUC of viability dose-response curve (72 h) (fraction (0-1)); higher = less growth inhibition (more resistant)
Outline: (§2)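 Sarcoma cell lines in 384-well plates were treated in triplicate for 72 h with 2.5 µl of a compound dilution series, made in 1:3 steps from 10 mM to 0.0002 mM on the compound plate. ATPLite viability was scaled from 1 (full) to 0 (none) and fitted per drug and cell line with a four-parameter log-logistic model. The values are standardised areas under the dose-response curve in log-dose space, from a modified drexplorer computeAUC. On that scale, 1 means no response and 0 means full response.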

[7] = tested on: G401; test: as above
Outline: as §2

[8] = tested on: HS729; test: as above
Outline: as §2

[9] = tested on: HT1080; test: as above
Outline: as §2

[10] = tested on: KHOS-240S; test: as above
Outline: as §2

[11] = tested on: KHOS-NP; test: as above
Outline: as §2

[12] = tested on: MES-SA; test: as above
Outline: as §2

[13] = tested on: RD-ES; test: as above
Outline: as §2

[14] = tested on: RD; test: as above
Outline: as §2

[15] = tested on: SK-ES-1; test: as above
Outline: as §2

[16] = tested on: SK-LMS-1; test: as above
Outline: as §2

[17] = tested on: SW1353; test: as above
Outline: as §2

[18] = tested on: SW684; test: as above
Outline: as §2

[19] = tested on: SW872; test: as above
Outline: as §2

[20] = tested on: SW982; test: as above
Outline: as §2

[21] = tested on: SYO-1; test: as above
Outline: as §2

[22] = tested on: VA-ES-BJ; test: as above
Outline: as §2

COc1cc2ncnc(Nc3cccc(Cl)c3F)c2cc1OC(=O)N1CCN(C)C[C@H]1C [AZD-3759]
relative viability
Details | [1] | [2] | [3] | [4] | [5]
0.00017 µM | 1.051 | 1.05 | 1.04 | 1.06 | 1.03
0.00051 µM | 1.1 | 0.958 | 1.06 | 1.02 | 0.995
0.00152 µM | 1.09 | 0.934 | 1.06 | 1.03 | 0.987
0.00457 µM | 1.08 | 0.971 | 1.06 | 1.06 | 0.977
0.01372 µM | 1.05 | 0.966 | 1.05 | 1.07 | 0.951
0.04115 µM | 1.08 | 0.875 | 1.04 | 1.04 | 0.947
0.1235 µM | 1.04 | 0.94 | 1.05 | 1.07 | 0.891
0.3704 µM | 1.04 | 0.878 | 1.04 | 1.07 | 0.896
1.111 µM | 1.03 | 0.856 | 0.9537 | 1.01 | 0.851
3.333 µM | 0.954 | 0.812 | 0.976 | 0.945 | 0.783
10 µM | 0.883 | 0.781 | 0.878 | 0.889 | 0.614

Details | standardised AUC
[6] | 0.958
[7] | 0.972
[8] | 0.906
[9] | 0.975
[10] | 0.967
[11] | 0.969
[12] | 0.974
[13] | 0.992
[14] | 0.991
[15] | 0.972
[16] | 0.964
[17] | 0.922
[18] | 0.978
[19] | 0.967
[20] | 0.977
[21] | 0.91
[22] | 0.955

C[C@@H]1COC(Nc2ccc3ncnc(Nc4ccc(OCc5nccs5)c(Cl)c4)c3c2)=N1 [Varlitinib]
relative viability
Details | [1] | [2] | [3] | [4] | [5]
0.00017 µM | 1.06 | 1.08 | 1.02 | 0.982 | 1.04
0.00051 µM | 1.06 | 1.05 | 1.03 | 1.01 | 1.04
0.00152 µM | 1.07 | 1.08 | 1.02 | 0.966 | 1.03
0.00457 µM | 1.06 | 1.06 | 1.05 | 0.974 | 1.03
0.01372 µM | 1.08 | 1.03 | 1.048 | 0.986 | 1.02
0.04115 µM | 1.11 | 1.05 | 1.05 | 0.993 | 1.03
0.1235 µM | 1.06 | 0.993 | 1.05 | 0.984 | 1.02
0.3704 µM | 1.01 | 0.994 | 0.996 | 0.932 | 1.02
1.111 µM | 0.905 | 0.9668 | 0.9899 | 0.918 | 1.01
3.333 µM | 0.763 | 0.931 | 0.947 | 0.949 | 0.941
10 µM | 0.258 | 0.76 | 0.849 | 0.883 | 0.55

CC[C@@H]1C(=O)N(C)c2cnc(Nc3ccc(C(=O)N[C@H]4CC[C@H](N5CCN(CC6CC6)CC5)CC4)cc3OC)nc2N1C(C)C [Volasertib]
relative viability
Details | [1] | [2] | [3] | [4] | [5]
0.00017 µM | 1.13 | 0.954 | 1.07 | 1.047 | 0.966
0.00051 µM | 1.1 | 0.995 | 1.054 | 1.07 | 0.974
0.00152 µM | 1.07 | 0.981 | 1.06 | 1.08 | 0.958
0.00457 µM | 1.1 | 0.954 | 1.06 | 1.06 | 0.912
0.01372 µM | 1.08 | 0.87 | 0.979 | 1.01 | 0.549
0.04115 µM | 0.858 | 0.685 | 0.319 | 0.353 | 0.352
0.1235 µM | 0.669 | 0.622 | 0.221 | 0.259 | 0.311
0.3704 µM | 0.418 | 0.657 | 0.189 | 0.209 | 0.131
1.111 µM | 0.253 | 0.641 | 0.171 | 0.182 | 0.00893
3.333 µM | 0.174 | 0.612 | 0.122 | 0.15 | -0.0446
10 µM | 0.0197 | 0.0591 | 0.0197 | 0.0111 | -0.0423
